# Results from PubChem BioAssay (NCI).
#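 1) Cells in 96-well plates. 2) Compound, 48 h, 5 concentrations. 3) Linear interpolation between surrounding doses. 4) Unreached endpoint = highest concentration. GI50 marks 50% less growth. The concentration for full growth arrest is given as TGI.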
# Key:
# Test in all cases: inhibition of tumour cell growth, NCI panel, 48 h
# PC-3 prostate = test system: PC-3 prostate
# SNB-19 CNS = test system: SNB-19 CNS
# NCI-H226 lung = test system: NCI-H226 lung
# SK-MEL-28 melanoma = test system: SK-MEL-28 melanoma
# UACC-257 melanoma = test system: UACC-257 melanoma
# SR leukemia = test system: SR leukemia
# SF-295 CNS = test system: SF-295 CNS
# A498 renal = test system: A498 renal
# SK-OV-3 ovarian = test system: SK-OV-3 ovarian
# HCT-15 colon = test system: HCT-15 colon
# COLO 205 colon = test system: COLO 205 colon
# CAKI-1 renal = test system: CAKI-1 renal
# NCI-H460 lung = test system: NCI-H460 lung
# A549 NSCLC = test system: A549 NSCLC
# SF-539 CNS = test system: SF-539 CNS
# ACHN renal = test system: ACHN renal
# SW-620 colon = test system: SW-620 colon
# OVCAR-8 ovarian = test system: OVCAR-8 ovarian
# U251 CNS = test system: U251 CNS
# MDA-MB-231 breast = test system: MDA-MB-231 breast
# EKVX NSCLC = test system: EKVX NSCLC
# SK-MEL-5 melanoma = test system: SK-MEL-5 melanoma
# MCF7 breast = test system: MCF7 breast
# KM12 colon = test system: KM12 colon
# HL-60(TB) leukemia = test system: HL-60(TB) leukemia
# MDA-MB-435 = test system: MDA-MB-435
# DU-145 prostate = test system: DU-145 prostate
# HOP-62 NSCLC = test system: HOP-62 NSCLC
# SNB-75 CNS = test system: SNB-75 CNS
# IGROV1 ovarian = test system: IGROV1 ovarian
# HCT-116 colon = test system: HCT-116 colon
# HT29 colon = test system: HT29 colon
# NCI-H23 lung = test system: NCI-H23 lung
# LOX IMVI melanoma = test system: LOX IMVI melanoma
# CCRF-CEM leukemia = test system: CCRF-CEM leukemia
# RPMI-8226 leukemia = test system: RPMI-8226 leukemia
# UO-31 renal = test system: UO-31 renal
# NCI/ADR-RES ovarian = test system: NCI/ADR-RES ovarian
# BT-549 breast = test system: BT-549 breast
# SN12C renal = test system: SN12C renal
# T-47D breast = test system: T-47D breast
# SF-268 CNS = test system: SF-268 CNS
# M14 melanoma = test system: M14 melanoma
# 786-0 renal = test system: 786-0 renal
# HS 578T breast = test system: HS 578T breast
# OVCAR-3 ovarian = test system: OVCAR-3 ovarian
# OVCAR-5 ovarian = test system: OVCAR-5 ovarian
# MOLT-4 leukemia = test system: MOLT-4 leukemia
# HOP-92 NSCLC = test system: HOP-92 NSCLC
# K-562 leukemia = test system: K-562 leukemia
# HCC-2998 colon = test system: HCC-2998 colon
# SK-MEL-2 melanoma = test system: SK-MEL-2 melanoma
# UACC-62 melanoma = test system: UACC-62 melanoma
# RXF 393 renal = test system: RXF 393 renal
# NCI-H522 lung = test system: NCI-H522 lung
# TK-10 renal = test system: TK-10 renal
# MALME-3M melanoma = test system: MALME-3M melanoma
# OVCAR-4 ovarian = test system: OVCAR-4 ovarian
smiles,measurement,setting,value
ClCCN1CCOC1=C1C=CC=C1,TGI,PC-3 prostate,> 100 µM
same,TGI,SNB-19 CNS,> 100 µM
same,TGI,NCI-H226 lung,> 100 µM
same,TGI,SK-MEL-28 melanoma,> 100 µM
same,TGI,UACC-257 melanoma,> 100 µM
same,TGI,SR leukemia,40.4 µM
same,TGI,SF-295 CNS,> 100 µM
same,TGI,A498 renal,> 100 µM
same,TGI,SK-OV-3 ovarian,> 100 µM
same,TGI,HCT-15 colon,> 100 µM
same,TGI,COLO 205 colon,> 100 µM
same,TGI,CAKI-1 renal,> 100 µM
same,TGI,NCI-H460 lung,> 100 µM
same,TGI,A549 NSCLC,> 100 µM
same,TGI,SF-539 CNS,> 100 µM
same,TGI,ACHN renal,> 100 µM
same,TGI,SW-620 colon,> 100 µM
same,TGI,OVCAR-8 ovarian,> 100 µM
same,TGI,U251 CNS,> 100 µM
same,TGI,MDA-MB-231 breast,> 100 µM
same,TGI,EKVX NSCLC,> 100 µM
same,TGI,SK-MEL-5 melanoma,> 100 µM
same,TGI,MCF7 breast,> 100 µM
same,TGI,KM12 colon,> 100 µM
same,TGI,HL-60(TB) leukemia,> 100 µM
same,TGI,MDA-MB-435,> 100 µM
same,TGI,DU-145 prostate,> 100 µM
same,TGI,HOP-62 NSCLC,> 100 µM
same,TGI,SNB-75 CNS,> 100 µM
same,TGI,IGROV1 ovarian,> 100 µM
same,TGI,HCT-116 colon,> 100 µM
same,TGI,HT29 colon,> 100 µM
same,TGI,NCI-H23 lung,> 100 µM
same,TGI,LOX IMVI melanoma,> 100 µM
same,TGI,CCRF-CEM leukemia,> 100 µM
same,TGI,RPMI-8226 leukemia,> 100 µM
same,TGI,UO-31 renal,> 100 µM
same,TGI,NCI/ADR-RES ovarian,> 100 µM
same,TGI,BT-549 breast,> 100 µM
same,TGI,SN12C renal,> 100 µM
same,TGI,T-47D breast,> 100 µM
same,TGI,SF-268 CNS,> 100 µM
same,TGI,M14 melanoma,> 100 µM
same,TGI,786-0 renal,> 100 µM
same,TGI,HS 578T breast,> 100 µM
same,TGI,OVCAR-3 ovarian,> 100 µM
same,TGI,OVCAR-5 ovarian,> 100 µM
same,TGI,MOLT-4 leukemia,> 100 µM
same,TGI,HOP-92 NSCLC,> 100 µM
Oc1ccc(CCl)c2cccnc12,GI50,PC-3 prostate,12.3 µM
same,TGI,PC-3 prostate,> 100 µM
same,GI50,SNB-19 CNS,22.9 µM
same,TGI,SNB-19 CNS,> 100 µM
same,GI50,NCI-H226 lung,34.6 µM
same,TGI,NCI-H226 lung,> 100 µM
same,GI50,SK-MEL-28 melanoma,59 µM
same,TGI,SK-MEL-28 melanoma,> 100 µM
same,GI50,UACC-257 melanoma,4.21 µM
same,TGI,UACC-257 melanoma,> 100 µM
same,GI50,SR leukemia,3.43 µM
same,TGI,SR leukemia,53.6 µM
same,GI50,SF-295 CNS,3.72 µM
same,TGI,SF-295 CNS,25.8 µM
same,GI50,K-562 leukemia,3.39 µM
same,TGI,K-562 leukemia,> 100 µM
same,GI50,A498 renal,46.5 µM
same,TGI,A498 renal,> 100 µM
same,GI50,SK-OV-3 ovarian,43.8 µM
same,TGI,SK-OV-3 ovarian,> 100 µM
same,GI50,HCT-15 colon,3.8 µM
same,TGI,HCT-15 colon,> 100 µM
same,GI50,COLO 205 colon,7.05 µM
same,TGI,COLO 205 colon,> 100 µM
same,GI50,HCC-2998 colon,33.5 µM
same,TGI,HCC-2998 colon,> 100 µM
same,GI50,CAKI-1 renal,5.91 µM
same,TGI,CAKI-1 renal,53.3 µM
same,GI50,SK-MEL-2 melanoma,> 100 µM
same,TGI,SK-MEL-2 melanoma,> 100 µM
same,GI50,UACC-62 melanoma,8.37 µM
same,TGI,UACC-62 melanoma,> 100 µM
same,GI50,NCI-H460 lung,3.95 µM
same,TGI,NCI-H460 lung,16 µM
same,GI50,A549 NSCLC,14.3 µM
same,TGI,A549 NSCLC,> 100 µM
same,GI50,SF-539 CNS,14.5 µM
same,TGI,SF-539 CNS,> 100 µM
same,GI50,ACHN renal,6.88 µM
same,TGI,ACHN renal,> 100 µM
same,GI50,RXF 393 renal,32.9 µM
same,TGI,RXF 393 renal,> 100 µM
same,GI50,SW-620 colon,4.12 µM
same,TGI,SW-620 colon,> 100 µM
same,GI50,OVCAR-8 ovarian,4.93 µM
same,TGI,OVCAR-8 ovarian,> 100 µM
same,GI50,U251 CNS,7.7 µM
same,TGI,U251 CNS,> 100 µM
same,GI50,MDA-MB-231 breast,6.07 µM
same,TGI,MDA-MB-231 breast,> 100 µM
same,GI50,EKVX NSCLC,3.21 µM
same,TGI,EKVX NSCLC,31.6 µM
same,GI50,SK-MEL-5 melanoma,12.4 µM
same,TGI,SK-MEL-5 melanoma,35.6 µM
same,GI50,KM12 colon,11.3 µM
same,TGI,KM12 colon,> 100 µM
same,GI50,HL-60(TB) leukemia,1.36 µM
same,TGI,HL-60(TB) leukemia,17.7 µM
same,GI50,MDA-MB-435,5.81 µM
same,TGI,MDA-MB-435,95.3 µM
same,GI50,DU-145 prostate,15.7 µM
same,TGI,DU-145 prostate,> 100 µM
same,GI50,HOP-62 NSCLC,16 µM
same,TGI,HOP-62 NSCLC,> 100 µM
same,GI50,SNB-75 CNS,44 µM
same,TGI,SNB-75 CNS,> 100 µM
same,GI50,HCT-116 colon,3.29 µM
same,TGI,HCT-116 colon,> 100 µM
same,GI50,HT29 colon,9.68 µM
same,TGI,HT29 colon,> 100 µM
same,GI50,NCI-H522 lung,3.62 µM
same,TGI,NCI-H522 lung,> 100 µM
same,GI50,NCI-H23 lung,6.13 µM
same,TGI,NCI-H23 lung,> 100 µM
same,GI50,LOX IMVI melanoma,4.9 µM
same,TGI,LOX IMVI melanoma,> 100 µM
same,GI50,TK-10 renal,> 100 µM
same,TGI,TK-10 renal,> 100 µM
same,GI50,CCRF-CEM leukemia,4.1 µM
same,TGI,CCRF-CEM leukemia,> 100 µM
same,GI50,RPMI-8226 leukemia,4.25 µM
same,TGI,RPMI-8226 leukemia,> 100 µM
same,GI50,UO-31 renal,2.9 µM
same,TGI,UO-31 renal,> 100 µM
same,GI50,NCI/ADR-RES ovarian,2.98 µM
same,TGI,NCI/ADR-RES ovarian,28.9 µM
same,GI50,BT-549 breast,32.4 µM
same,TGI,BT-549 breast,> 100 µM
same,GI50,SN12C renal,12.5 µM
same,TGI,SN12C renal,> 100 µM
same,GI50,MALME-3M melanoma,4.44 µM
same,TGI,MALME-3M melanoma,36 µM
same,GI50,T-47D breast,3.65 µM
same,TGI,T-47D breast,> 100 µM
same,GI50,SF-268 CNS,6.84 µM
same,TGI,SF-268 CNS,> 100 µM
same,GI50,OVCAR-4 ovarian,3.41 µM
same,TGI,OVCAR-4 ovarian,> 100 µM
same,GI50,M14 melanoma,3.2 µM
same,TGI,M14 melanoma,> 100 µM
same,GI50,786-0 renal,37.7 µM
same,TGI,786-0 renal,> 100 µM
same,GI50,HS 578T breast,6.94 µM
same,TGI,HS 578T breast,91.3 µM
same,GI50,OVCAR-3 ovarian,2.08 µM
same,TGI,OVCAR-3 ovarian,5.5 µM
same,GI50,OVCAR-5 ovarian,17.5 µM
same,TGI,OVCAR-5 ovarian,> 100 µM
same,GI50,MOLT-4 leukemia,3.96 µM
same,TGI,MOLT-4 leukemia,> 100 µM
same,GI50,HOP-92 NSCLC,14.5 µM
same,TGI,HOP-92 NSCLC,90 µM
